Assay results taken from US20180051017A1, “AGENT FOR TREATMENT OF SCHIZOPHRENIA” (Sumitomo Dainippon Pharma Co., Ltd., priority 2002, published 2018).
Structures can show the parent of a compound that is named as a salt.

System: patients with schizophrenia in the acute exacerbation phase
Assay: First stage phase II clinical trial: safety (adverse events, serious adverse events, side effects, ECG, laboratory tests)
Format: in vivo, human
Experimental: According to the procedures as shown in Table 1 as described below, the placebo-controlled double blind experiment was done on 149 patients with schizophrenia in the acute exacerbation phase at 15 facilities in USA. The efficacy and safeness were studied when SM-13496 at a dose of 40 mg or 120 mg, or a placebo was orally administered once a day for 6 weeks after placebo washout.

[1] = 40 mg orally once a day for 6 weeks, 50 subjects

O=C1[C@@H]2[C@@H]3CC[C@@H](C3)[C@@H]2C(=O)N1C[C@@H]1CCCC[C@H]1CN1CCN(c2nsc3ccccc23)CC1 [SM-13496, (1R,2S,3R,4S)-N-[(1R,2R)-2-[4-(1,2-benzoisothiazol-3-yl)-1-piperazinyl-methyl]-1-cyclohexylmethyl]-2,3-bicyclo[2.2.1]heptanedicarboximide hydrochloride]
2 (4) number of subjects (%): Occurrence of adverse event: Exacerbation of schizophrenia (40 mg, 6 weeks, 50 subjects) | Side effect: Constipation (Gastroenteric disturbance) (40 mg, 6 weeks, 50 subjects) | Side effect: Muscle stiffness (Musculoskeletal system and connective tissue disorder) (40 mg, 6 weeks, 50 subjects) | Side effect: Vomiting (Gastroenteric disturbance) (40 mg, 6 weeks, 50 subjects)
no clinically significant change: Change in 12-lead electrocardiogram (40 mg or 120 mg, 6 weeks)
9 (18) number of subjects (%): Occurrence of adverse event: Suppression (40 mg, 6 weeks, 50 subjects) | Side effect: Suppression (Nervous system disorder) (40 mg, 6 weeks, 50 subjects)
1 (2) number of subjects (%): Occurrence of serious adverse event: Exacerbation of paranoia (40 mg, 6 weeks, 50 subjects) | Occurrence of serious adverse event: Exacerbation of schizophrenia (40 mg, 6 weeks, 50 subjects) | Occurrence of serious adverse event: Psychosis aggravated (40 mg, 6 weeks, 50 subjects) | Side effect: Akathisia aggravated (Nervous system disorder) (40 mg, 6 weeks, 50 subjects) | Side effect: Anorexia (Metabolic disturbances and nutritional disturbance) (40 mg, 6 weeks, 50 subjects) | Side effect: Anxiety aggravated (Mental disturbance) (40 mg, 6 weeks, 50 subjects) | Side effect: Articular rigidity (Musculoskeletal system and connective tissue disorder) (40 mg, 6 weeks, 50 subjects) | Side effect: Blurred vision (Ocular disturbance) (40 mg, 6 weeks, 50 subjects) | Side effect: Cervical rigidity (Musculoskeletal system and connective tissue disorder) (40 mg, 6 weeks, 50 subjects) | Side effect: Decrease in appetite (Metabolic disturbances and nutritional disturbance) (40 mg, 6 weeks, 50 subjects) | Side effect: Dystonic reaction (Nervous system disorder) (40 mg, 6 weeks, 50 subjects) | Side effect: External otitis (Infection and parasitosis) (40 mg, 6 weeks, 50 subjects) | Side effect: Extrapyramidal disease (Nervous system disorder) (40 mg, 6 weeks, 50 subjects) | Side effect: Fatigue aggravated (Total disability and local condition) (40 mg, 6 weeks, 50 subjects) | Side effect: Flatulence (Gastroenteric disturbance) (40 mg, 6 weeks, 50 subjects) | Side effect: Heavy feeling (Musculoskeletal system and connective tissue disorder) (40 mg, 6 weeks, 50 subjects) | Side effect: Increase in creatine phosphokinase level in the blood (Laboratory assay) (40 mg, 6 weeks, 50 subjects) | Side effect: Increase in prolactin level in the blood (Laboratory assay) (40 mg, 6 weeks, 50 subjects) | Side effect: Increase in total protein (Laboratory assay) (40 mg, 6 weeks, 50 subjects) | Side effect: Insomnia (Mental disturbance) (40 mg, 6 weeks, 50 subjects) | Side effect: Laryngopharynx pain (Disturbance in respiratory organ, chest and mediastinum) (40 mg, 6 weeks, 50 subjects) | Side effect: Restlessness (Mental disturbance) (40 mg, 6 weeks, 50 subjects) | Side effect: Sleepiness (Total disability and local condition) (40 mg, 6 weeks, 50 subjects) | Side effect: Tongue disturbance (Gastroenteric disturbance) (40 mg, 6 weeks, 50 subjects) | Side effect: Urinary tract infection (Infection and parasitosis) (40 mg, 6 weeks, 50 subjects) | Side effect: Weight loss (Laboratory assay) (40 mg, 6 weeks, 50 subjects)
0 (0) number of subjects (%): Occurrence of serious adverse event: Paranoid schizophrenia (40 mg, 6 weeks, 50 subjects) | Side effect: Abdominal pain (Gastroenteric disturbance) (40 mg, 6 weeks, 50 subjects) | Side effect: Abnormal electrocardiogram (Laboratory assay) (40 mg, 6 weeks, 50 subjects) | Side effect: Abnormal liver function tests (Laboratory assay) (40 mg, 6 weeks, 50 subjects) | Side effect: Agitation (Mental disturbance) (40 mg, 6 weeks, 50 subjects) | Side effect: Agitation aggravated (Mental disturbance) (40 mg, 6 weeks, 50 subjects) | Side effect: Anarthria (Nervous system disorder) (40 mg, 6 weeks, 50 subjects) | Side effect: Breathing difficulty (Disturbance in respiratory organ, chest and mediastinum) (40 mg, 6 weeks, 50 subjects) | Side effect: Cogwheel rigidity (Nervous system disorder) (40 mg, 6 weeks, 50 subjects) | Side effect: Dry eye (Ocular disturbance) (40 mg, 6 weeks, 50 subjects) | Side effect: Dry mouth (Gastroenteric disturbance) (40 mg, 6 weeks, 50 subjects) | Side effect: Exacerbation of insomnia (Mental disturbance) (40 mg, 6 weeks, 50 subjects) | Side effect: Flushing (Vascular diseases) (40 mg, 6 weeks, 50 subjects) | Side effect: Frequent urination (Renal Injury and urinary disorder) (40 mg, 6 weeks, 50 subjects) | Side effect: Glossoplegia (Nervous system disorder) (40 mg, 6 weeks, 50 subjects) | Side effect: Hot flashes (Vascular diseases) (40 mg, 6 weeks, 50 subjects) | Side effect: Hot sensation (Total disability and local condition) (40 mg, 6 weeks, 50 subjects) | Side effect: Loose stools (Gastroenteric disturbance) (40 mg, 6 weeks, 50 subjects) | Side effect: Melalgia (Musculoskeletal system and connective tissue disorder) (40 mg, 6 weeks, 50 subjects) | Side effect: Myalgic pain (Musculoskeletal system and connective tissue disorder) (40 mg, 6 weeks, 50 subjects) | Side effect: Nightmare (Mental disturbance) (40 mg, 6 weeks, 50 subjects) | Side effect: Palpitation (Heart problems) (40 mg, 6 weeks, 50 subjects) | Side effect: Parotiditis (Infection and parasitosis) (40 mg, 6 weeks, 50 subjects) | Side effect: Polyuria (Renal Injury and urinary disorder) (40 mg, 6 weeks, 50 subjects) | Side effect: Pruritus (Disturbance in Skin and Hypodermis) (40 mg, 6 weeks, 50 subjects) | Side effect: Psychosis aggravated (Mental disturbance) (40 mg, 6 weeks, 50 subjects) | Side effect: Salivary hypersecretion (Gastroenteric disturbance) (40 mg, 6 weeks, 50 subjects) | Side effect: Sinus tachycardia (Heart problems) (40 mg, 6 weeks, 50 subjects) | Side effect: Tinea pedis (Infection and parasitosis) (40 mg, 6 weeks, 50 subjects) | Side effect: Trismus (Nervous system disorder) (40 mg, 6 weeks, 50 subjects)
denied: Relationship of the serious adverse events to the tested medicament (40 mg and 120 mg groups)
4 (8) number of subjects (%): Occurrence of adverse event: Akathisia (40 mg, 6 weeks, 50 subjects) | Occurrence of adverse event: Digestive disturbance (40 mg, 6 weeks, 50 subjects) | Occurrence of adverse event: Drowsiness (40 mg, 6 weeks, 50 subjects) | Side effect: Akathisia (Nervous system disorder) (40 mg, 6 weeks, 50 subjects) | Side effect: Drowsiness (Nervous system disorder) (40 mg, 6 weeks, 50 subjects) | Side effect: Nausea (Gastroenteric disturbance) (40 mg, 6 weeks, 50 subjects)
not observed: Body weight gain, bulimia, impotence, erectile dysfunction or convulsion (40 mg or 120 mg, 6 weeks)
3 cases: Serious adverse events (40 mg-treated group)
5 (10) number of subjects (%): Occurrence of adverse event: Nausea (40 mg, 6 weeks, 50 subjects) | Side effect: Free-floating vertigo (excluding rotatory vertigo) (Nervous system disorder) (40 mg, 6 weeks, 50 subjects)
no significant difference: Ratio of the patients having an abnormal change in laboratory values among the groups (40 mg, 120 mg and placebo groups)
6 (12) number of subjects (%): Number of subjects who drop out from the trial due to adverse events (%) [1] | Occurrence of adverse event: Free-floating vertigo (excluding rotatory vertigo) (40 mg, 6 weeks, 50 subjects) | Side effect: Headache (Nervous system disorder) (40 mg, 6 weeks, 50 subjects)
18%: Ratio of the subjects showing suppression (40 mg-treated group)
3 (6) number of subjects (%): Number of subjects showing serious adverse events (%) [1] | Serious adverse events: Total (%) (40 mg, 6 weeks, 50 subjects) | Side effect: Diarrhea (Gastroenteric disturbance) (40 mg, 6 weeks, 50 subjects) | Side effect: Dyspepsia (Gastroenteric disturbance) (40 mg, 6 weeks, 50 subjects) | Side effect: Fatigue (Total disability and local condition) (40 mg, 6 weeks, 50 subjects) | Side effect: Tremor (Nervous system disorder) (40 mg, 6 weeks, 50 subjects)
40 (80) number of subjects (%): Number of subjects showing adverse events (%) [1]
8%: Akathisia (adverse event) (40 mg-treated group)
8 (16) number of subjects (%): Occurrence of adverse event: Headache (40 mg, 6 weeks, 50 subjects)
4%: Exacerbation of schizophrenia (adverse event) (40 mg-treated group)
33 (66) number of subjects (%): Occurrence of side effects (%) (40 mg, 6 weeks, 50 subjects)
38 (78) number of subjects (%): Number of subjects showing adverse events (%) (120 mg orally once a day for 6 weeks, 49 subjects)
